Patent US11312722B2, “Hsp90 inhibitors and uses thereof” (TRUSTEES OF BOSTON UNIVERSITY, priority 2019, dated 2022)
pKd: −log10 of the molar value.

Legend:
C. albicans Hsp90 NBD [1] = biological target: T1, C. albicans Hsp90 NBD (Candida albicans (strain SC5314 / ATCC MYA-2876) (Yeast), UniProt P46598); details: cited from earlier work
C. albicans Hsp90 NBD [2] = biological target: T1, C. albicans Hsp90 NBD; type: binding; details: equimolar protein and ligand (10 μM)
Method: (§1) Using recombinant proteins, assay-independent nanomolar inhibitory constants (Ki) were defined for these compounds. Binding of the compounds to their relevant NBD by thermal shift denaturation assays was also confirmed. Thermal shift assays were performed under saturating ligand conditions, i.e. equimolar concentrations (10 μM) of protein and ligand. As a result, they can provide only qualitative evidence of target binding, but not a quantitative measurement of ligand affinity. […] […]. C. neoformans or C. albicans Hsp90 NBD was combined with equimolar concentrations of the indicated bioactive inhibitors (10 μM) or DMSO control, in technical triplicates. The protein was heated from 25 to 98.6° C. at 0.2° C./5 s in the presence of Sypro Orange dye. All compounds induce an increase in melting temperature relative to the DMSO control, reported as ΔTm.
Protein thermal shift assays. Thermal melting curves were determined using a Protein Thermal Shift Kit (ThermoFisher #4462263), employing a CFX384 Real-Time PCR System (Bio-Rad, C1000 Touch Thermal Cycler). […] Temperature shift, ΔTm, was recorded as the difference between the Tm of the fungal Hsp90 NBD with compound minus Tm of the protein without compound.

C. neoformans Hsp90 NBD [3] = biological target: T2, C. neoformans Hsp90 NBD (Cryptococcus neoformans, UniProt J9VVA4); test: biochemical; type: binding; details: SPR, 25° C., read-out: Biacore KD
T2 sequence (J9VVA4 1-699): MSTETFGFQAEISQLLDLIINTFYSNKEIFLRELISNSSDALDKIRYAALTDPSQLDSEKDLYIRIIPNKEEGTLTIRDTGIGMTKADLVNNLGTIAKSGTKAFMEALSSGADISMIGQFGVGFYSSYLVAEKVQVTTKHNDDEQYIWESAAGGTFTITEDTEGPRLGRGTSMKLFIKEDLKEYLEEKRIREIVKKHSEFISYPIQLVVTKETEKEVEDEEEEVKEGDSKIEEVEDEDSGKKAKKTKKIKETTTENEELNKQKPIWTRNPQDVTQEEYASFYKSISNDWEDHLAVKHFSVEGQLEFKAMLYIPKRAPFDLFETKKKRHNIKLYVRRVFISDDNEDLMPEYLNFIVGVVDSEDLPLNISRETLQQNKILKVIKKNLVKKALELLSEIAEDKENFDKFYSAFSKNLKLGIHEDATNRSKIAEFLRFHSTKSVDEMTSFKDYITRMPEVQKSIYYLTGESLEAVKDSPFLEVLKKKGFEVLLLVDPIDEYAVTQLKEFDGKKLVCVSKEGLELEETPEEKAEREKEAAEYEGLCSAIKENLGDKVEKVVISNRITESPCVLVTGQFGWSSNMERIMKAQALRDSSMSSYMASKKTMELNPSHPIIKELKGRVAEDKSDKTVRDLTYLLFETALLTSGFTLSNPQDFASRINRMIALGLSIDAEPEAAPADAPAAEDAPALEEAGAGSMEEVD
Method: (§2) SPR assays. For SPR experiments, Hsp90 NBD expression constructs were modified to encode a C-terminal AviTag™ for site-specific on-column biotinylation with a BirA biotin-ligase kit (Avidity LLC; BirA-500). SPR experiments were performed on a Biacore T200 instrument at 25° C. Biotinylated Hsp90 NBD was diluted to 40 μg/mL and immobilized on a streptavidin chip (Sensor Chip SA, GE Healthcare) at a density of 2000-2500 response units (RU) on the biosensor surface. […] Resulting sensorgrams were analyzed with a fit to a 1:1 binding model, using BIA evaluation software.

[4] = tested on: C. neoformans (Strain H99); test: Antifungal sensitivity testing (MIC), C. neoformans H99; type: cell-based
[5] = tested on: C. albicans clinical isolate (CaCi2); type: cell-based; details: moderately fluconazole-resistant clinical isolate of C. albicans (CaCi2), 8 μg/mL fluconazole
Method: (§3) Color scale bar: no growth inhibition (green) to complete inhibition (black). Each shaded box represents the mean of technical duplicates. The experiment was repeated as an independent biological replicate to confirm results.
(§4) Each shaded box represents the mean of technical duplicates. Relative viable cell number was monitored by standard dye reduction assay after 3-hr incubation with resazurin at 37° C. FIG. 6B: Following exposure to compounds, aliquots of the culture in each well were spotted onto compound-free YPD agar and plates incubated at 30° C. for an additional 24 hours before imaging to assess viability. The entire experiment consisting of growth in liquid culture followed by spotting onto YPD agar was repeated once.
Yeast strains and culture conditions. Strains used in this study were C. albicans CaCi2 (clinical isolate 2), [58] SC5314, [59] and C. neoformans H99. […] Active cultures were maintained on solid (2% agar) yeast extract peptone (YPD, 1% yeast extract, 2% bactopeptone, 2% glucose) at 4° C. for no more than one month.
(§5) Antifungal sensitivity testing. […] Each compound was tested in duplicate in at least two independent experiments. […] Plates were photographed after 24 h of incubation at 30° C.

[6] = tested on: C. albicans clinical isolate (CaCi2); test: Fungicidal activity: spotting of MIC cultures onto compound-free YPD agar; type: cell-based; details: C. albicans CaCi2, spotted on YPD agar after 48 h exposure
Method: as §3, §4, §5

C. neoformans Hsp90 NBD [7] = biological target: T2, C. neoformans Hsp90 NBD; test: Protein thermal shift assay, C. neoformans Hsp90 NBD; type: binding; details: equimolar protein and ligand (10 μM)
Method: as §1, with “[…]. Using” for “Using”
Protein thermal shift assays. Thermal melting curves were determined using a Protein Thermal Shift Kit (ThermoFisher #4462263), employing a CFX384 Real-Time PCR System (Bio-Rad, C1000 Touch Thermal Cycler). Reactions were performed in a final volume of 10 μL, and contained purified C. albicans or C. neoformans Hsp90 NBD diluted to 250 μg/mL in Buffer HBS-P (GE Healthcare Life Sciences, 0.01 M HEPES pH 7.4, 0.15 M NaCl, 0.005% v/v Surfactant P20) with 10 μM synthetic analog or DMSO control, and 1× Sypro Orange dye solution. Samples were prepared in triplicate in 384-well white plates (Bio-Rad; HSP3805). The instrument was set to melt curve, step 1 (25° C., 2 min) and step 2 (ramp to 98.6° C., increasing 0.2° C. per 5 s cycle). The inflection point of each curve is defined as the protein melting temperature (Tm). Temperature shift, ΔTm, was recorded as the difference between the Tm of the fungal Hsp90 NBD with compound minus Tm of the protein without compound.

C. albicans Hsp90 NBD [8] = biological target: T1, C. albicans Hsp90 NBD; test: biochemical; type: binding
Method: as §2

T1 sequence (P46598 1-240 limits assumed): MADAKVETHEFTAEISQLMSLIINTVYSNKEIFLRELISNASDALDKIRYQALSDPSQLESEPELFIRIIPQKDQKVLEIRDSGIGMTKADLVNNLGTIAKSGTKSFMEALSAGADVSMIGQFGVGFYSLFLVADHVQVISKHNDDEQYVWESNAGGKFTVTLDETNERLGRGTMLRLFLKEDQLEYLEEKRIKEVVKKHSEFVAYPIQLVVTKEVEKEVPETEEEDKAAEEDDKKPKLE

SMILES	pKd (C. neoformans Hsp90 NBD [3])	fungicidal activity in combination with fluconazole [6]	C. neoformans NBD ΔTm (C. neoformans Hsp90 NBD [7]) [°C]	also measured
COc1ccc(CON=C2C=CC=CC3OC3CC(C)OC(=O)c3c(O)cc(O)cc3C2)cc1 (centres unmarked) [CMLD013075]	–	–	–	binding selectivity for the C. albicans Hsp90 NBD compared to the human ortholog (C. albicans Hsp90 NBD [1]): > 25 fold
Cn1nc(-c2ccc(OC(F)(F)F)cc2)cc1Nc1cc(O)cc(O)c1C(=O)N1Cc2ccccc2C1 [Compound 130, 4-(2,3-Dihydro-1H-isoindole-2-carbonyl)-5-((1-methyl-3-(4-(trifluoromethoxy)phenyl)-1H-pyrazol-5-yl)amino)benzene-1,3-diol]	8.15	converted the fungistatic activity of fluconazole to fungicidal	–	C. albicans NBD ΔTm (C. albicans Hsp90 NBD [2]): 9 °C; MIC80 ([4]; Cryptococcus neoformans, read-out: C. neo MIC80): > 25 µM; MIC90 ([4]; Cryptococcus neoformans, read-out: C. neo MIC90): > 25 µM; C. neo Active (cells) ([4]; Yes/No call): No; MIC in combination with fluconazole [5]: 12.5 µM
Cc1cc(Nc2cc(O)cc(O)c2C(=O)N2Cc3ccccc3C2)n(Cc2ccccc2Cl)n1 [Compound 89, 5-((1-((2-Chlorophenyl)methyl)-3-methyl-1H-pyrazol-5-yl)amino)-4-(2,3-dihydro-1H-isoindole-2-carbonyl)benzene-1,3-diol]	–	fungicidal activity in combination with fluconazole	12	–
COc1ccc(Cn2nc(-c3ccccc3)cc2Nc2cc(O)cc(O)c2C(=O)N2Cc3ccccc3C2)cc1 [Compound 21, 4-(2,3-dihydro-1H-isoindole-2-carbonyl)-5-((1-((4-methoxyphenyl)methyl)-3-phenyl-1H-pyrazol-5-yl)amino)benzene-1,3-diol]	–	fungicidal activity in combination with fluconazole	14	–
C[C@@H]1C[C@H]2O[C@@H]2/C=C\C=C\C(=O)Cc2c(Cl)c(O)cc(O)c2C(=O)O1 [Radicicol, radicicol]	8.70	–	–	pKd (C. albicans Hsp90 NBD [8]): 8.70
